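Cells were grown in 96-well plates and exposed to each compound for 48 hours at five concentrations; endpoints were interpolated linearly between bracketing concentrations, or set to the highest concentration if not reached. GI50 = concentration required for 50% inhibition of growth.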 Calls of active or inactive are those of the source. Rule as the data show it: active = GI50 up to about 1.1 µM and inactive = higher.
Experiments:
Assay in all cases: inhibition of tumour cell growth, NCI panel, 48 h
UACC-257 = tested on: UACC-257
MDA-MB-231 = tested on: MDA-MB-231
SF-268 = tested on: SF-268
M14 = tested on: M14
MCF7 = tested on: MCF7
COLO 205 = tested on: COLO 205
NCI-H23 = tested on: NCI-H23
OVCAR-5 = tested on: OVCAR-5
OVCAR-8 = tested on: OVCAR-8
OVCAR-3 = tested on: OVCAR-3
Hs-578T = tested on: Hs-578T
SNB-75 = tested on: SNB-75
ACHN = tested on: ACHN
CAKI-1 = tested on: CAKI-1
HOP-62 = tested on: HOP-62
HCT-15 = tested on: HCT-15
CCRF-CEM = tested on: CCRF-CEM
NCI-H226 = tested on: NCI-H226
HOP-92 = tested on: HOP-92
HL-60 = tested on: HL-60

| Compound | GI50 (UACC-257) | GI50 (MDA-MB-231) | GI50 (SF-268) | GI50 (M14) | GI50 (MCF7) | GI50 (COLO 205) | GI50 (NCI-H23) | GI50 (OVCAR-5) | GI50 (OVCAR-8) | GI50 (OVCAR-3) | GI50 (Hs-578T) | GI50 (SNB-75) | GI50 (ACHN) | GI50 (CAKI-1) | GI50 (HOP-62) | GI50 (HCT-15) [µM] | GI50 (CCRF-CEM) | GI50 (NCI-H226) | GI50 (HOP-92) | GI50 (HL-60) |
| --- | --- | --- | --- | --- | --- | --- | --- | --- | --- | --- | --- | --- | --- | --- | --- | --- | --- | --- | --- | --- |
| O=S(=O)(Cc1ccccc1)c1nnc(S(=O)(=O)c2ccc(Cl)cc2)s1 | 19.9 µM (inactive) | 34.8 µM (inactive) | 19.5 µM (inactive) | 17.7 µM (inactive) | 48 µM (inactive) | 16 µM (inactive) | 23.3 µM (inactive) | 24.8 µM (inactive) | 19 µM (inactive) | 20.5 µM (inactive) | 18.1 µM (inactive) | 16.6 µM (inactive) | 19.4 µM (inactive) | 24.3 µM (inactive) | 21.4 µM (inactive) | 20.9 |  |  |  |  |
| COc1ccc2c(c1)-c1c(c3cc(OC)ccc3n1CCN(C)C)CC2 | 15.6 µM (inactive) | 13.9 µM (inactive) | 18.3 µM (inactive) | 13.7 µM (inactive) | 14.4 µM (inactive) | 12.2 µM (inactive) | 15.5 µM (inactive) | 15.7 µM (inactive) | 17.4 µM (inactive) | 14.3 µM (inactive) | 13.7 µM (inactive) | 21.9 µM (inactive) | 15.1 µM (inactive) | 14.6 µM (inactive) | 15.8 µM (inactive) | 13.6 | 6.35 µM (inactive) | 13.4 µM (inactive) | 14.1 µM (inactive) |  |
| CC1=CC(=O)C(C(O)(C(F)(F)F)C(F)(F)F)C(C)(C)C1 (stereo not given) | > 10 µM (inactive) | > 10 µM (inactive) | > 10 µM (inactive) | > 10 µM (inactive) | > 10 µM (inactive) | > 10 µM (inactive) | > 10 µM (inactive) |  | > 10 µM (inactive) | > 10 µM (inactive) | > 10 µM (inactive) | > 10 µM (inactive) | > 10 µM (inactive) | > 10 µM (inactive) | > 10 µM (inactive) | > 10 | > 10 µM (inactive) | > 10 µM (inactive) |  | > 10 µM (inactive) |
| CC(C)(C)OC(=O)Cn1ncn(NC(=O)Cc2ccccc2)c1=S | > 10 µM (inactive) | > 10 µM (inactive) | > 10 µM (inactive) | > 10 µM (inactive) | > 10 µM (inactive) | > 10 µM (inactive) | > 10 µM (inactive) | > 10 µM (inactive) | > 10 µM (inactive) | > 10 µM (inactive) | > 10 µM (inactive) | > 10 µM (inactive) | > 10 µM (inactive) | > 10 µM (inactive) | > 10 µM (inactive) | > 10 | > 10 µM (inactive) |  | > 10 µM (inactive) |  |
| COc1c(C)c(C/C=C(\C)CCCCO[Si](C(C)C)(C(C)C)C(C)C)c(OC)c2ccccc12 | > 100 µM (inactive) | > 100 µM (inactive) | > 100 µM (inactive) | > 100 µM (inactive) | > 100 µM (inactive) | > 100 µM (inactive) | > 100 µM (inactive) | > 100 µM (inactive) | > 100 µM (inactive) | > 100 µM (inactive) | > 100 µM (inactive) | > 100 µM (inactive) | > 100 µM (inactive) | > 100 µM (inactive) | > 100 µM (inactive) | > 100 | 49 µM (inactive) |  | > 100 µM (inactive) |  |
| CC1(C)C(CC(=O)O)CCCC1CC(=O)O (stereo not given) | > 100 µM (inactive) | > 100 µM (inactive) |  | > 100 µM (inactive) | > 100 µM (inactive) | > 100 µM (inactive) | > 100 µM (inactive) | > 100 µM (inactive) | > 100 µM (inactive) | > 100 µM (inactive) | > 100 µM (inactive) |  | > 100 µM (inactive) | > 100 µM (inactive) | > 100 µM (inactive) | > 100 | > 100 µM (inactive) | 55.5 µM (inactive) |  |  |
| Cc1cccc(Cl)c1NCC(O)CN1CCN(C)CC1 (stereo not given) | > 100 µM (inactive) | > 100 µM (inactive) | > 100 µM (inactive) | > 100 µM (inactive) |  |  | > 100 µM (inactive) | > 100 µM (inactive) | > 100 µM (inactive) | > 100 µM (inactive) | > 100 µM (inactive) | > 100 µM (inactive) | > 100 µM (inactive) | > 100 µM (inactive) | > 100 µM (inactive) | > 100 | > 100 µM (inactive) | > 100 µM (inactive) | > 100 µM (inactive) |  |
| CCN1CCN(c2nc3ccccc3nc2C(=O)c2ccc(OC)cc2)CC1 | 16.5 µM (inactive) |  | 29.4 µM (inactive) | 15 µM (inactive) | 7.1 µM (inactive) | > 100 µM (inactive) | 27 µM (inactive) | 56.8 µM (inactive) | 60.7 µM (inactive) | 69.7 µM (inactive) | 38.6 µM (inactive) | 37.2 µM (inactive) | 27.8 µM (inactive) | 39.8 µM (inactive) | 16 µM (inactive) | 49.4 |  |  | 18.3 µM (inactive) | > 100 µM (inactive) |
| Nc1ccc(CCN2CCN(CCCc3ccccc3)CC2)cc1 | 62.4 µM (inactive) | 60.8 µM (inactive) | > 100 µM (inactive) | 39.4 µM (inactive) | 28.6 µM (inactive) | 27.7 µM (inactive) | 79.4 µM (inactive) | > 100 µM (inactive) | 47.1 µM (inactive) | 48.1 µM (inactive) | > 100 µM (inactive) |  | > 100 µM (inactive) | > 100 µM (inactive) | > 100 µM (inactive) | 21.7 | 48.2 µM (inactive) | > 100 µM (inactive) |  | 26.6 µM (inactive) |
| OC1(C(Sc2cc(C(F)(F)F)cc(C(F)(F)F)c2)Sc2cc(C(F)(F)F)cc(C(F)(F)F)c2)C=CCCC1 (stereo not given) | 1.2 µM (inactive) |  | 2.54 µM (inactive) | 1.81 µM (inactive) | 1.49 µM (inactive) | 1.99 µM (inactive) | 2.58 µM (inactive) | 0.847 µM (active) | 2.12 µM (inactive) | 2.04 µM (inactive) | 2.95 µM (inactive) | 2.15 µM (inactive) | 1.85 µM (inactive) | 1.79 µM (inactive) | 3.25 µM (inactive) | 1.37 | 1.61 µM (inactive) |  | 2.83 µM (inactive) | 1.38 µM (inactive) |
| O=c1[nH]nc(-c2cccc(Br)c2)[nH]1 | > 100 µM (inactive) |  | > 100 µM (inactive) | > 100 µM (inactive) | > 100 µM (inactive) | > 100 µM (inactive) | > 100 µM (inactive) | > 100 µM (inactive) | > 100 µM (inactive) | > 100 µM (inactive) | 18.2 µM (inactive) | 43.3 µM (inactive) | > 100 µM (inactive) | > 100 µM (inactive) | > 100 µM (inactive) | > 100 | > 100 µM (inactive) | > 100 µM (inactive) | > 100 µM (inactive) | > 100 µM (inactive) |
| COc1ccc(/C=C2\OC(=O)C(Cl)=C2c2ccc(OC)c(Cl)c2)cc1 | 34.7 µM (inactive) |  | 17.3 µM (inactive) | 25.4 µM (inactive) | 19.9 µM (inactive) | 40.4 µM (inactive) | 20 µM (inactive) | 24.6 µM (inactive) | 21.1 µM (inactive) | 20 µM (inactive) | 20.9 µM (inactive) | 19.7 µM (inactive) | 30.4 µM (inactive) | 21.9 µM (inactive) | 15.2 µM (inactive) | 45 | 29.2 µM (inactive) |  | 17.9 µM (inactive) | 47.1 µM (inactive) |
| O=C(Nc1ccc(Cl)cc1)Oc1ccc(C(=S)Nc2ccc(Br)cc2)cc1 | 15.5 µM (inactive) |  | 30.5 µM (inactive) | 3.43 µM (inactive) | 11.7 µM (inactive) | 9.75 µM (inactive) | 27.7 µM (inactive) | 4.05 µM (inactive) | 6.01 µM (inactive) | 16.1 µM (inactive) | 57.1 µM (inactive) |  | 12.2 µM (inactive) | 7.78 µM (inactive) | 39.3 µM (inactive) | 11 | 3.04 µM (inactive) |  |  | 1.61 µM (inactive) |
| CCOC(=O)C1C(c2ccc(O)c(OC)c2)c2c(n[nH]c2O)CC1(C)O (stereo not given) | > 100 µM (inactive) | > 100 µM (inactive) | > 100 µM (inactive) | > 100 µM (inactive) | > 100 µM (inactive) | > 100 µM (inactive) | > 100 µM (inactive) | > 100 µM (inactive) | > 100 µM (inactive) | > 100 µM (inactive) | > 100 µM (inactive) | > 100 µM (inactive) | > 100 µM (inactive) | > 100 µM (inactive) | > 100 µM (inactive) | > 100 | > 100 µM (inactive) |  | > 100 µM (inactive) | > 100 µM (inactive) |
| CS/C(C#N)=C(\C#N)SC | 10.9 µM (inactive) | 24.7 µM (inactive) | 11.9 µM (inactive) | 2.48 µM (inactive) | 2.22 µM (inactive) | 3.06 µM (inactive) | 5.61 µM (inactive) | 26.3 µM (inactive) | 2.74 µM (inactive) | 1.77 µM (inactive) | 31.8 µM (inactive) | 52.2 µM (inactive) | 4.33 µM (inactive) | 6.04 µM (inactive) | 16.6 µM (inactive) | 2.23 | 5.6 µM (inactive) | 2.55 µM (inactive) |  | 1.79 µM (inactive) |
| N#C[C@](CO)(NC(=O)OCc1ccccc1)C(F)F | > 100 µM (inactive) | > 100 µM (inactive) | > 100 µM (inactive) | > 100 µM (inactive) |  | > 100 µM (inactive) | > 100 µM (inactive) | > 100 µM (inactive) | > 100 µM (inactive) | > 100 µM (inactive) | > 100 µM (inactive) | > 100 µM (inactive) | > 100 µM (inactive) | > 100 µM (inactive) | > 100 µM (inactive) | > 100 | > 100 µM (inactive) | > 100 µM (inactive) | > 100 µM (inactive) | > 100 µM (inactive) |

Source: ChEMBL document CHEMBL1201862, “PubChem BioAssay data set” (2004)
